Reference: ChEMBL document CHEMBL5223142, “Identification of potent and selective inhibitors of PKR via virtual screening and traditional design” (Bioorg Med Chem Lett, 2023)

Assays:
[1] = target: T1, Interferon-induced, double-stranded RNA-activated protein kinase (Homo sapiens, UniProt P19525); test: Inhibition of PKR (unknown origin)
[2] = target: T1, Interferon-induced, double-stranded RNA-activated protein kinase; test: Inhibition of GST tagged human PKR incubated for 10 mins in presence of ATP by Kinase Glo luminescence assay

T1 sequence (P19525 whole entry): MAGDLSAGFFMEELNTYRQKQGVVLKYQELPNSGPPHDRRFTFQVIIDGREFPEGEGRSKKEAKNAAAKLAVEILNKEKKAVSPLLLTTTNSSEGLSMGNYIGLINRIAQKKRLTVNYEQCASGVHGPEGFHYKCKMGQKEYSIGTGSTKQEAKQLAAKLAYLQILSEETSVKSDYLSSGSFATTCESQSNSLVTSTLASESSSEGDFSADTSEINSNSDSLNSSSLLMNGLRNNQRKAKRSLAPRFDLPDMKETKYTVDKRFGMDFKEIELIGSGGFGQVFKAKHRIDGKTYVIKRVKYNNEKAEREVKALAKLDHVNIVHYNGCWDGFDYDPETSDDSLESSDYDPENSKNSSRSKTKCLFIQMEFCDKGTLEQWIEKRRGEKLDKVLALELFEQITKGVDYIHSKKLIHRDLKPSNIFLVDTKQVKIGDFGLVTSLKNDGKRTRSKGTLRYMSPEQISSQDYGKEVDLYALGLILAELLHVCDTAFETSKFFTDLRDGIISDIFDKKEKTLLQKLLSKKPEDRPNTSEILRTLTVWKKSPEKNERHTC

SMILES | IC50 [1] [nM] | also measured
CCn1cc(-c2ccc3c(c2)CCN3C(=O)Cc2cccc(OC(F)(F)F)c2)c2c(N)ncnc21 | 116 | 
COCCO[C@H]1CC[C@H](n2nc(-c3ccc(Nc4nc5cc(Cl)cc(F)c5o4)cc3)c3c(N)ncnc32)CC1 | 364 | 
Nc1ncc(-c2nnn(CCCO)n2)cc1-c1cc2cc(NC(=O)Nc3ccc(Cl)c(C(F)(F)F)c3)ccc2o1 |  | IC50 [2]: 475 nM
CC(=O)Cn1cc(-c2cnc(N)c3c(-c4ccc(NC(=O)Nc5cccc(C)c5)cc4)csc23)cn1 | 306 | 
CCc1ccc(OC(F)(F)F)cc1CC(=O)N1CCc2cc(-c3cn(CC)c4ncnc(N)c34)ccc21 |  | EC50 [1]: 37 nM
O=C(Nc1cc(-c2ccccc2)[nH]n1)c1ccc(N2CCNC2=O)cc1 | 3880 | 
CCc1ccc(OC(F)(F)F)cc1CC(=O)N1CCc2cc(-c3nn(CC)c4ncnc(N)c34)ccc21 |  | EC50 [1]: 95 nM
